Reference: ChEMBL document CHEMBL5113422, “Structure-based rational design enables efficient discovery of a new selective and potent AKT PROTAC degrader” (Eur J Med Chem, 2022)
Activity calls are given as the source filed them. The calls are words filed in the database; no cut-off is given here.

Key:
[1] = system: JeKo-1; assay: Antiproliferative activity against human Jeko-1 cells assessed as cell viability measured after 7 days by CCK-8 assay; type: functional, cell-based; conditions: JeKo-1, 168 h
[2] = system: JeKo-1; assay: Antiproliferative activity against human Jeko-1 cells expressing CRBN-knockout assessed as cell viability measured after 7 days by CCK-8 assay; type: functional, cell-based; conditions: JeKo-1, 168 h
[3] = Antiproliferative activity against human Mino cells assessed as cell viability measured after 7 days by CCK-8 assay; type: functional, cell-based; conditions: 168 h
[4] = system: MM1.S; assay: Antiproliferative activity against human MM1.S cells assessed as cell viability measured after 3 days by CCK-8 assay; type: functional, cell-based; conditions: 72 h
[5] = system: MM1.S; assay: Antiproliferative activity against human MM1.S cells assessed as cell viability measured after 7 days by CCK-8 assay; type: functional, cell-based; conditions: 168 h
[6] = molecular target: T1, Protein cereblon/AKT (Homo sapiens, UniProt P31751+Q9Y243+P31749+Q96SW2); assay: Protac activity at CRBN/Akt in human Jeko-1 cells assessed as Akt degradation at 250 nM after 24 hrs by immunoblot analysis relative to control; type: cell-based
[7] = molecular target: T1, Protein cereblon/AKT; assay: Protac activity at CRBN/Akt in human Jeko-1 cells assessed as Akt degradation after 24 hrs by immunoblot analysis relative to control; type: cell-based
[8] = molecular target: T1, Protein cereblon/AKT; assay: Protac activity at CRBN/Akt in human Jeko-1 cells assessed as Akt degradation at 250 nM after 2 hrs by immunoblot analysis; type: cell-based
[9] = molecular target: Protein cereblon/RAC-alpha serine/threonine-protein kinase (Homo sapiens) (UniProt P31749+Q96SW2); assay: Protac activity at CRBN/Akt1 in human Jeko-1 cells assessed as Akt1 degradation at 500 nM after 12 hrs by immunoblot analysis; type: cell-based
[10] = molecular target: Protein cereblon/RAC-beta serine/threonine-protein kinase (Homo sapiens) (UniProt P31751+Q96SW2); assay: Protac activity at CRBN/Akt2 in human Jeko-1 cells assessed as Akt2 degradation at 500 nM after 12 hrs by immunoblot analysis; type: cell-based
[11] = molecular target: Protein cereblon/Zinc finger protein Aiolos (Homo sapiens) (UniProt Q96SW2+Q9UKT9); assay: Protac activity at CRBN/IKZF3 in human Jeko-1 cells assessed as IKZF3 degradation at 500 nM after 12 hrs by immunoblot analysis; type: cell-based
[12] = molecular target: T1, Protein cereblon/AKT; assay: Protac activity at CRBN/Akt in human Jeko-1 cells assessed as decrease in phosphorylated GSK3beta level after 24 hrs by immunoblot analysis; type: cell-based; conditions: dose 10-1000 nM
[13] = system: JeKo-1; assay: Antiproliferative activity against human Jeko-1 cells assessed as cell viability measured after 3 days cotreated with Ibrutinib by CCK-8 assay; type: functional, cell-based; conditions: time 3.0 day
[14] = molecular target: T1, Protein cereblon/AKT; assay: Protac activity at CRBN/Akt in human Jeko-1 cells assessed as decrease in Myc level after 24 hrs cotreated with Ibrutinib by immunoblot analysis; type: cell-based

Protein cereblon/Zinc finger protein Aiolos (Homo sapiens), sequence (Q96SW2 whole entry, looked up): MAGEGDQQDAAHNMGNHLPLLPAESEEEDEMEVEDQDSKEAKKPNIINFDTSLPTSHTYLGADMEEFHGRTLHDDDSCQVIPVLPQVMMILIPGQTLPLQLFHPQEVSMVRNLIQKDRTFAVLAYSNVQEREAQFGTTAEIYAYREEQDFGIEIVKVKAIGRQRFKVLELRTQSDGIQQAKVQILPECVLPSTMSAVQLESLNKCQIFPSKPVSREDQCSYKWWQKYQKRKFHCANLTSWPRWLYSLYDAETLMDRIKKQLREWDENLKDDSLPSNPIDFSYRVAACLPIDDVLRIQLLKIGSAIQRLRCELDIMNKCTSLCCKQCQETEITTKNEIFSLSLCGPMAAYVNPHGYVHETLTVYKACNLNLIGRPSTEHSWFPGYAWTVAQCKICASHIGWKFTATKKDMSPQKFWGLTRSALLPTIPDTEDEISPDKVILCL
Protein cereblon/Zinc finger protein Aiolos (Homo sapiens), sequence (Q9UKT9 whole entry, looked up): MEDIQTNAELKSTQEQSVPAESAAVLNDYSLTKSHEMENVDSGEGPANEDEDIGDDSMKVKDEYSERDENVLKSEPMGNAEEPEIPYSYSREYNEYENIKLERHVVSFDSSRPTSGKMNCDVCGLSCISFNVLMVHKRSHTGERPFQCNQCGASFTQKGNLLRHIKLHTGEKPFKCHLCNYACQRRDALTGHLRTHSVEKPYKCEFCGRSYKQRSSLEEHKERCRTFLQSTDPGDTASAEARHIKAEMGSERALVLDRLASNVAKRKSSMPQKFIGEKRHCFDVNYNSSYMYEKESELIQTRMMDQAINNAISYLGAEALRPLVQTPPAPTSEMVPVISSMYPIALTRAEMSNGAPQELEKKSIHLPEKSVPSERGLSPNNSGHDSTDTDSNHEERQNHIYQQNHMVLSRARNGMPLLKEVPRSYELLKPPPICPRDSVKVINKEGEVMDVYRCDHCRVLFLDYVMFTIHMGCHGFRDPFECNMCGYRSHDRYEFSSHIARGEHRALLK
Protein cereblon/RAC-alpha serine/threonine-protein kinase (Homo sapiens), sequence (P31749 whole entry, looked up): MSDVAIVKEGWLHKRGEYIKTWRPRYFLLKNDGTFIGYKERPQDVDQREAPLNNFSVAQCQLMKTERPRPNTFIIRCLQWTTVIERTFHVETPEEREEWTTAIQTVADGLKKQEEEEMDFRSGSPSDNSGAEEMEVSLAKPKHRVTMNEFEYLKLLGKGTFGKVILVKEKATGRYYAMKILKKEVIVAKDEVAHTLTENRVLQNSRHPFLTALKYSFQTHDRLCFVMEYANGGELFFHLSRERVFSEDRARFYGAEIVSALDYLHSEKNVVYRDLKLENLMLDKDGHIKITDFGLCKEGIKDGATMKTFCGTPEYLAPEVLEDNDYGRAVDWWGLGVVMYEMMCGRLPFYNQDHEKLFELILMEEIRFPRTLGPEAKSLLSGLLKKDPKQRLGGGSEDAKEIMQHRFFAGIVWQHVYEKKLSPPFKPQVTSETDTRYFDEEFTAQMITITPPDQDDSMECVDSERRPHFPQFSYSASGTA
Protein cereblon/RAC-alpha serine/threonine-protein kinase (Homo sapiens), sequence (Q96SW2 whole entry, looked up): as the sequence (Q96SW2 whole entry, looked up) above
T1 sequence (P31751 whole entry): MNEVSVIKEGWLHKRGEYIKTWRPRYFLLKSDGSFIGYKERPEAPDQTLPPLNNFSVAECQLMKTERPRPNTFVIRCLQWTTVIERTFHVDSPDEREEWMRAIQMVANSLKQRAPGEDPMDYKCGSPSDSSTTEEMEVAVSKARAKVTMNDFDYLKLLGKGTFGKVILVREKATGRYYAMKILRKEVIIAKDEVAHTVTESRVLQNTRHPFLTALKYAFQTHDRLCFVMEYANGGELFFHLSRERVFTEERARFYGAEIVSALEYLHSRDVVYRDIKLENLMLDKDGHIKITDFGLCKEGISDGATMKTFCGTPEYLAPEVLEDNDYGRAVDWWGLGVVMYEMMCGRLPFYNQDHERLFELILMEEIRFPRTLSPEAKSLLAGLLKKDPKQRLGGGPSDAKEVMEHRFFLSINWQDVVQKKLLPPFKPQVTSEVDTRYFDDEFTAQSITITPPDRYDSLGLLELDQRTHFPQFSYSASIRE
T1 sequence (Q9Y243 whole entry): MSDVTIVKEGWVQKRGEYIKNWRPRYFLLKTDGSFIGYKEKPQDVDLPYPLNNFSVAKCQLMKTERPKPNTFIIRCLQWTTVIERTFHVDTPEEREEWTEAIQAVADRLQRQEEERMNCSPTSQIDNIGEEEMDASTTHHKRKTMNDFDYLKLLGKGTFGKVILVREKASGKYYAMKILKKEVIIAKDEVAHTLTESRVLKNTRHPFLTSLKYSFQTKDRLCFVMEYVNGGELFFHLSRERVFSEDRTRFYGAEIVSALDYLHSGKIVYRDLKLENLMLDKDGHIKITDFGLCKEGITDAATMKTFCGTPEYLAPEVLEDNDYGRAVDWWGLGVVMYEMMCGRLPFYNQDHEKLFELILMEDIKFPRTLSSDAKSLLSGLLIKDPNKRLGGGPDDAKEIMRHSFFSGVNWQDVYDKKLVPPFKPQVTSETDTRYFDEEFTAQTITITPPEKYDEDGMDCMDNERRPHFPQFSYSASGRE
T1 sequence (P31749 whole entry): as the sequence (P31749 whole entry, looked up) above
T1 sequence (Q96SW2 whole entry): as the sequence (Q96SW2 whole entry, looked up) above
Protein cereblon/RAC-beta serine/threonine-protein kinase (Homo sapiens), sequence (P31751 whole entry, looked up): as the sequence (P31751 whole entry) above
Protein cereblon/RAC-beta serine/threonine-protein kinase (Homo sapiens), sequence (Q96SW2 whole entry, looked up): as the sequence (Q96SW2 whole entry, looked up) above

CNC(=O)C[C@@H]1C[C@@H](c2cccc(F)c2)[C@H](NC(=O)c2ccc(-c3c(Cl)cnn3C)s2)CN1
IC50 [1]: 506 nM
IC50 [2]: 350 nM
IC50 [3]: 3370 nM
IC50 [4]: 72.9 nM
IC50 [5]: 72.4 nM

Nc1cccc2c1C(=O)N(C1CCC(=O)NC1=O)C2=O (stereo not given) [POMALIDOMIDE]
IC50 [1]: 2620 nM
IC50 [2]: > 20000 nM
IC50 [3]: 16500 nM
IC50 [4]: 838 nM
IC50 [5]: 21.9 nM

COCCOCCOCCNc1cccc2c1C(=O)N(C1CCC(=O)NC1=O)C2=O (stereo not given)
IC50 [1]: > 20000 nM
IC50 [2]: > 20000 nM
IC50 [3]: > 20000 nM
IC50 [4]: 4790 nM
IC50 [5]: 40.3 nM

Cn1ncc(Cl)c1-c1ccc(C(=O)N[C@@H]2CN[C@H](CC(=O)Nc3ccc(OCCOCCOCCNc4cccc5c4C(=O)N(C4CCC(=O)NC4=O)C5=O)cc3)C[C@H]2c2cccc(F)c2)s1 (stereo not given in full)
Activity [6]: 95%

Cn1ncc(Cl)c1-c1cc(C(=O)N[C@@H]2CN[C@H](CC(=O)Nc3ccc(OCCOCCOCCNc4cccc5c4C(=O)N(C4CCC(=O)NC4=O)C5=O)cc3)C[C@H]2c2cccc(F)c2)oc1Cl (stereo not given in full)
Activity [6]: 95%
DC50 [7]: 28 nM
Activity [8]: Active
Activity [9]: Active
Activity [10]: Active
Activity [11]: Active
Activity [12]: Active
IC50 [1]: 205 nM
IC50 [2]: 2320 nM
IC50 [3]: 2270 nM
IC50 [4]: 79 nM
IC50 [5]: 23.4 nM
Activity [13]: Active
Activity [14]: Active

Nc1cccc2c1CN(C1CCC(=O)NC1=O)C2=O (stereo not given) [LENALIDOMIDE]
IC50 [1]: > 20000 nM
IC50 [2]: > 20000 nM
IC50 [3]: > 20000 nM
IC50 [4]: > 20000 nM
IC50 [5]: 70.2 nM
